US20250375465A1, “METHODS FOR AFFECTING TISSUE-RESIDENT T CELLS” (THE TRUSTEES OF THE UNIVERSITY OF PENNSYLVANIA, priority 2024, published 2025)
“Also recorded” adds a separate entry of the source.

Tests used:
[1] = test system: primary human T cells; assay: Kill curve in primary human (circulating) T cells, celltiter glow viability assay (FIG. 6C); format: cell-based; details: for apoptosis / killing of primary human T cells: FIG. 6C, 3 days incubation
Experimental: (Data extracted from J Clin Invest. 2022; 132 (16): e153514). FIG. 6C: in contrast to the AML cells, circulating T cells required about 100-fold higher dose of the GSPT-1 degrader to be depleted. The GSPT-1 degrader used in FIG. 6C is C90009, the same drug as in FIGS. 6A-6B. Blue curve: kill curve with MRT-2359. Primary human T cells were incubated with indicated doses for 3 days followed by viability quantification using a standard celltiter glow assay. Survival was quantified relative to T cells from the same donor treated with DMSO.

[2] = test system: primary leukemia cells; details: FIG. 6B; data extracted from J Clin Invest. 2022; 132 (16): e153514; cited from earlier work
[3] = target: T1, GSPT1 (Homo sapiens, UniProt P15170+Q96SW2); assay: Western blot of GSPT1 protein in primary human T cells after degrader treatment (FIGS. 13A-13B); format: cell-based; details: primary human peripheral blood T cells, 24 hours in vitro, compared to DMSO control
T1 construct: GSPT1 protein in primary human T cells isolated from peripheral blood; endogenous in cells; host or cells: primary human T cells from peripheral blood of normal donors
T1 sequence (P15170 whole entry): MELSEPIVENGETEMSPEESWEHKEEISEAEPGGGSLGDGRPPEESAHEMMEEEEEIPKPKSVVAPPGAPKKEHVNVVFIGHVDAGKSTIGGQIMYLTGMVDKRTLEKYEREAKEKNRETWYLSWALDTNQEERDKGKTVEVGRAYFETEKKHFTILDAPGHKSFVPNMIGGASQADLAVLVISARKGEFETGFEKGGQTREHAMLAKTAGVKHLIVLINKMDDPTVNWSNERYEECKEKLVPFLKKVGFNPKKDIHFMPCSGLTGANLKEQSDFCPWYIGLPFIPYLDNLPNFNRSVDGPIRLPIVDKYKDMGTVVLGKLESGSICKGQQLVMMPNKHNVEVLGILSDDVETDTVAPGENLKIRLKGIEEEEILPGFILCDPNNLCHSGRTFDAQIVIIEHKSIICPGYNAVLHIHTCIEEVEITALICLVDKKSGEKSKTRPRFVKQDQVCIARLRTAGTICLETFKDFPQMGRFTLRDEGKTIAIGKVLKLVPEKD
T1 sequence (Q96SW2 whole entry): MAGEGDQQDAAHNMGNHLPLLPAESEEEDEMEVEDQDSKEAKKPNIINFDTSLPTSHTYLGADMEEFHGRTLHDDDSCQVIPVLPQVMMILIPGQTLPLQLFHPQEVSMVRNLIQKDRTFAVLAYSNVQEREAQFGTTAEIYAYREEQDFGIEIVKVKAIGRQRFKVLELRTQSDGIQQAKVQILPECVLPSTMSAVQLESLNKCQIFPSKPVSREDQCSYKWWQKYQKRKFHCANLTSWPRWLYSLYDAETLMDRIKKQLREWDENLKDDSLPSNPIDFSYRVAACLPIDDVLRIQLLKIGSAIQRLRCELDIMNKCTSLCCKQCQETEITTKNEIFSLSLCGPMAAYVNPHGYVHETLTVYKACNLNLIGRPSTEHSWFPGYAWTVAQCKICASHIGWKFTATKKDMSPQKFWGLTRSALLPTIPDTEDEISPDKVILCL
T1 sequence (Q16531 whole entry partner): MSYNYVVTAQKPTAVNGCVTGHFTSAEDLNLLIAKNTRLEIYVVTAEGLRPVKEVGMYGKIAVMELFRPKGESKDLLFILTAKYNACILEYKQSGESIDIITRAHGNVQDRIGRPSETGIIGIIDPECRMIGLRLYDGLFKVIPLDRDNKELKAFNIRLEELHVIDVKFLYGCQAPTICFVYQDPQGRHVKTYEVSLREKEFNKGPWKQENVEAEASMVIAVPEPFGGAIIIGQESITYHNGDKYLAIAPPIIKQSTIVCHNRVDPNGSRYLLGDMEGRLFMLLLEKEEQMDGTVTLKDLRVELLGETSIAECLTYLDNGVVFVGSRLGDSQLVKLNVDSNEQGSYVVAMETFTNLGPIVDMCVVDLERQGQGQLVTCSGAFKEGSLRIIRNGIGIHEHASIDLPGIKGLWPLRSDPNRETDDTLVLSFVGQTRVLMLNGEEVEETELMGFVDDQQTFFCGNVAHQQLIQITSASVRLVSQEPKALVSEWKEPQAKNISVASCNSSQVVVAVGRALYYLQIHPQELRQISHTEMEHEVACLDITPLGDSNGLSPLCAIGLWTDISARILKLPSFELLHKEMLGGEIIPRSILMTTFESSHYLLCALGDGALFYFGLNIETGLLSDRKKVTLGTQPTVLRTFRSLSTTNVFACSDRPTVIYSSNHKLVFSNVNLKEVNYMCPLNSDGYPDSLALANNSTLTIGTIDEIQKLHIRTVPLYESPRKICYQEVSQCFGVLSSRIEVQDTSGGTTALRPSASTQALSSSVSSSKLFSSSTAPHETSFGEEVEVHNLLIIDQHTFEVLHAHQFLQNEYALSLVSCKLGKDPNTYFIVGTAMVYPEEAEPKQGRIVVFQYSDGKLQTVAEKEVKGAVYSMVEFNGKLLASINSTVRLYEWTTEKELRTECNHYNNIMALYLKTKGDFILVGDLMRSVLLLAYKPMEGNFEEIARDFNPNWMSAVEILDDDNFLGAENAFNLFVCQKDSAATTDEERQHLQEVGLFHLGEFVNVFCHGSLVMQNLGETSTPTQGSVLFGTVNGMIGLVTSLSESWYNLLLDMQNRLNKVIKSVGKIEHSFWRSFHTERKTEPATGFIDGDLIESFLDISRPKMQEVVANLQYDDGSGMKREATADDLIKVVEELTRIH
Experimental: FIGS. 13A-13B illustrate degradation of GSPT1 in primary human T cells using CC-90009 and MRT-2359. FIG. 13A is a Western blot analysis of GSPT1 protein in primary human T cells isolated from peripheral blood. T cells were treated with indicated concentrations of GSPT1 degrader for 24 hours in vitro. GSPT1 protein was detected with a monoclonal anti-GSPT1 antibody. FIG. 13B is a graph quantifying GSPT1 protein remaining after degrader treatment as shown in FIG. 13A compared to a DMSO negative control.
(§1) Given that GSPT1-degrading small-molecules are already advancing through early-phase trials for cancer, it was tested whether targeting GSPT1 could selectively affect TRM in vitro. TRM were isolated from healthy human skin (n=6) and their sensitivity was to the GSPT1-degrading drug CC-90009 with that of human blood T cells. […] In a similar study, another small molecule GSPT1 degrader, MRT-2359, was used to treat peripheral blood T cells from normal human donors for 24 hours in vitro at various concentrations.

[4] = test system: TRM isolated from healthy human skin; assay: Viability of skin TRM versus blood T cells after GSPT1 degrader treatment (FIG. 10D); format: cell-based; details: 72 hours of treatment, n=6
Experimental: as §1

[5] = test system: acute myeloid leukemia (AML) cells; details: FIG. 6A; data extracted from J Clin Invest. 2022; 132 (16): e153514; cited from earlier work

Row | SMILES | dosage required for same level of apoptosis in primary (circulating) T cells versus cells of FIGS. 6A-6B ([1]; FIG. 6C versus FIGS. 6A-6B) | apoptosis / killing of primary human T cells [1] | dose required to deplete circulating T cells relative to AML cells ([1]; primary human T cells incubated 3 days, survival relative to DMSO, compared with FIGS. 6A-6B) | depletion / apoptosis of primary leukemia cells [2] | GSPT1 protein remaining after degrader treatment [3] | viability of skin TRM compared with circulating T cells [4] | depletion / apoptosis of AML cells [5]
1 | O=C1CCC(N2Cc3cc(CNC(=O)C(F)(F)c4ccc(Cl)cc4)ccc3C2=O)C(=O)N1 (stereo not drawn) [CC-90009] | dramatically increased | does apoptosis | about 100 fold | dose-dependent apoptosis; also recorded: dose-dependent depletion | significant dose-dependent loss of GSPT1 protein; also recorded: dose-dependent downregulation of GSPT1 protein | reduced viability | dose-dependent apoptosis; also recorded: dose-dependent depletion
2 | O=C1CCC(N2Cc3ccc(COC(=O)Nc4cc(OC(F)(F)F)ccc4F)cc3C2=O)C(=O)N1 (stereo not drawn) [MRT-2359] | – | does apoptosis | – | – | significant dose-dependent loss of GSPT1 protein; also recorded: dose-dependent downregulation of GSPT1 protein | – | –
